The text below walks through data of article PMC11377542, “An artificial intelligence accelerated virtual screening platform for drug discovery” (Nature Communications, 2024).

No end group written: not given here. *: point of attachment. Biotin = O=C1N[C@H]2[C@H](CS[C@H]2CCCCC(=O)*)N1

The target in one test is T1, KLHDC2 (Homo sapiens, UniProt Q9Y2U9).
T1 construct: human KLHDC2 (UniProt: Q9Y2U9, amino acid 1–362); made in house; host or cells: HighFive insect cells (baculovirus, pFastBac)
T1 sequence (Q9Y2U9 1-362): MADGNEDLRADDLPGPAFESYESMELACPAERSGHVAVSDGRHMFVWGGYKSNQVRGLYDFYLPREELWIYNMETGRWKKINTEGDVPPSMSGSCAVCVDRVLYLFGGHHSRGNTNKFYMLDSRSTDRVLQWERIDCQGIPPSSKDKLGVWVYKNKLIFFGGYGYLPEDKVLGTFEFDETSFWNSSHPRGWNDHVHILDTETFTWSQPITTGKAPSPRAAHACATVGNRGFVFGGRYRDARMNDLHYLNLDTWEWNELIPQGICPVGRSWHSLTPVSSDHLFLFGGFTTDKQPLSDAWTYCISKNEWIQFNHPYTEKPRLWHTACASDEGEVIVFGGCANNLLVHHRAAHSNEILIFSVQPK
Put plainly: AlphaLISA competition assay (displacement of SelK C-end degron peptide from GST-KLHDC2). In kind it is binding. As to conditions: IC50, competition with biotinylated 12 aa SelK degron peptide; 12-point titration, n = 3 technical replicates. An excerpt:
We took the top-ranked 1000 compounds and filtered out compounds with low predicted solubility, unsatisfied hydrogen bonds in the bound conformation, and followed by similarity clustering to reduce the redundancy in ligand structures. A total of 54 molecules that passed the filtering and clustering were manually examined for favorable interactions and geometries in PyMol[34]. Finally, 37 compounds were chosen for chemical synthesis. Out of these, 29 compounds were successfully synthesized (Supplementary Fig. 13) and characterized in an AlphaLISA competition assay, in which each compound was tested for its ability to compete with a diglycine-containing SelK C-end degron peptide for binding KLHDC2. […] This single digit μM IC50 was further confirmed in a competition assay using BioLayer Interferometry (Supplementary Fig. 14).
The kelch repeat domain of human KLHDC2 (UniProt: Q9Y2U9, amino acid 1–362) was subcloned into the pFastBac vector with an N-terminally fused glutathione-S-transferase (GST), and a TEV-cleavage site. A recombinant baculovirus was produced and amplified three times in Sf9 monolayer cells to produce P4. The P4 virus was used to infect HighFive suspension insect cell cultures to produce the recombinant GST-KLHDC2 protein. The cells were harvested 2–3 days post-infection, re-suspended, and lysed in lysis buffer (20 mM Tris, pH 8.0, 200 mM NaCl, 5 mM DTT) in the presence of protease inhibitors (1 μg/ml Leupeptin, 1 μg/ml Pepstatin and 100 μM PMSF) using a microfluidizer. The GST-KLHDC2 protein was isolated from the soluble cell lysate by PierceTM Glutathione Agarose (Thermo Scientific). For AlphaLISA competition assays, the GST-tagged KLHDC2 was further purified by Q Sepharose High-Performance resin (GE Healthcare). The NaCl eluates were subjected to a Superdex-200 size exclusion chromatography column (GE Healthcare). All samples were flash-frozen in liquid nitrogen for storage prior to use. For protein crystallization, the kelch repeat domain of human KLHDC2 (amino acids 22–362) was subcloned into the pET vector with an N-terminally fused His-elongation factor Ts (TSF) and a TEV-cleavage site. The His-TSF-KLHDC2 protein was overexpressed and purified from BL21 (DE3) E. coli cells. Bacterial cells transformed with the pET-based expression plasmid were grown in LB broth to an OD600 of 0.8–1 and induced with 0.5 mM IPTG. Cells were harvested, re-suspended, and lysed in lysis buffer (20 mM Tris, pH 8.0, 200 mM NaCl, 20 mM imidazole) in the presence of protease inhibitors (1 μg mL–1 leupeptin, 1 μg mL–1 pepstatin and 100 μM phenylmethylsulfonyl fluoride) using a microfluidizer. The His-TSF-KLHDC2 protein was isolated from the soluble cell lysate by HisPurTM Ni-NTA Superflow Agarose (Thermo Fisher Scientific, Waltham, Massachusetts). After TEV cleavage of the His-TSF, KLHDC2 was further purified by Mono Q™ 5/50 GL (GE Healthcare, Chicago, Illinois). The NaCl eluates were subjected to Superdex-200 size-exclusion chromatography (GE Healthcare). Native mass spectrometry was used to confirm KLHDC2 in its apo form. The samples were concentrated by ultrafiltration to 10–22 mg mL−1. All samples were flash-frozen in liquid nitrogen for storage prior to use.
AlphaLISA assays for determining and measuring protein-protein interactions were performed using an EnSpire reader (PerkinElmer). GST-tagged KLHDC2 was attached to anti-GST AlphaLISA acceptor beads. Synthetic N-terminal biotinylated 12 aa SelK degron peptide ([Biotin]HLRGSPPPMAGG[C) (Bio-Synthesis, Inc.) was immobilized to streptavidin-coated AlphaLISA donor beads. The donor and acceptor beads were brought into proximity by the interactions between the SelK peptide and KLHDC2. Excitation of the donor beads by a laser beam of 680 nm promotes the formation of singlet oxygen. When an acceptor bead is in close proximity, the singlet oxygen reacts with thioxene derivatives in the acceptor beads and causes the emission of 615 nm photons, which are detected as the binding signal. […]
(In general: Alpha assays give light when donor and acceptor beads are brought close together.)

Another test addresses T2, hNaV1.7 channel (Homo sapiens, UniProt Q15858).
T2 construct: expressed in transfected cells
Put plainly: Whole-cell patch-clamp electrophysiology on hNaV1.7 stably expressed in HEK-293 cells. Type of test: cell-based. As to conditions: NaV1.7 inactivated state, -70 mV holding potential; mean; read-out: inactivated-state IC50. An excerpt:
We first clustered the top 100,000 ranked small molecules, then applied filters on the top 1000 cluster representative molecules. A total of 160 molecules that passed the clustering and filtering were examined manually. To ensure the chemical novelty of our selection, we specifically excluded molecules that contain the known arylsulfonamide warhead or structurally resemble antihistamines or beta-receptor blockers. Finally, ten molecules with Tanimoto similarities of less than 0.33 to the known inhibitors of NaV1.7 from the ChEMBL database[43],[44] were selected for synthesis. Of these, nine were successfully synthesized (Supplementary Fig. 16), and their activities were measured using the whole-cell patch-clamp electrophysiology assay on hNaV1.7 channel stably expressed in HEK-293 cells as described in Methods.
HEK-293 cells stably expressing human NaV1.5 and NaV1.7 were obtained from Dr. Chris Lossin (UC Davis, CA). HEK293 cells stably expressing HERG (hKv11.1) were a gift from Craig January (University of Wisconsin, Madison). Cells were cultured in complete DMEM supplemented with 10% FBS, 1% penicillin/streptomycin, and G418. All manual whole-cell patch-clamp recordings were performed at room temperature (22–24 °C) using an EPC-10 amplifier (HEKA Electronik, Lambrecht/Pfalz, Germany) on cells that were grown to 60–80% confluency, lifted with TrypLE, and plated onto poly-l-lysine–coated coverslips. External bath solution contains (in mM) 160 NaCl, 4.5 KCl, 2 CaCl2, 1 MgCl2, 10 HEPES (pH 7.4 and 305 mOsm) as. Patch pipettes were heat-pulled from soda lime glass (micro-hematocrit tubes, Kimble Chase, Rochester, NY) and had resistances of 2–3 MΩ when filled with an internal solution. Patch recordings of NaV1.5 and NaV1.7 channels were done using a cesium fluoride-based internal solution containing (in mM) 10 NaF, 110 CsF, 20 CsCl, 10 HEPES, 2 EGTA, (pH 7.4, 310 mOsm). Recordings of HERG channels were conducted using a potassium fluoride-based internal solution with added ATP (160 mM KF, 2 mM MgCl2, 10 mM EGTA, 10 mM HEPES, 4 mM NaATP, pH = 7.2 and 300–320 mOsm). Data acquisition and analysis were performed with Pulse-PulseFit (HEKA Electronik GmbH, Germany), IgorPro (WaveMetrics, Portland, OR), and Origin 9.0 software (OriginLab Corporation, Northampton, MA). To investigate specifically the inactivated state block of NaV1.7 and NaV1.5, holding potentials were set at the V1/2 of maximal inactivation (− 70 mV and − 80 mV, respectively) before voltage stepping to − 150 mV for 20 msec, and then 0 mV for 50 msec to elicit inward currents. Inhibition of currents in the resting state was recorded using a holding potential of − 120 mV. Control test currents were monitored for up to 5–10 min to ensure that the amplitude and kinetics of the response were stable. Series resistance was compensated to 80–90% and linear leak currents and capacitance artifacts were corrected using a P/4 subtraction method. The pulse interval was 0.1 Hz. For all experiments, stock solutions of the drugs were prepared fresh from 10 mM stocks in DMSO and test solutions prepared in external bath solutions were applied to individual cells into the recording bath. […] The percent reduction of HERG tail current amplitude by the compounds was determined. The percent of a block of tail current amplitude by the drugs was determined and data are shown as mean +/− SD (n = 3–4 per data point).
(Patch clamp records ionic current or voltage across a cell membrane.)

In test [1] the target is T3, GST-tagged kelch repeat domain of human KLHDC2 (amino acid 1-362) (human, UniProt Q9Y2U9 1-362).
T3 construct: kelch repeat domain of human KLHDC2, UniProt Q9Y2U9, amino acids 1-362; A TEV cleavage site lies between GST and KLHDC2; GST was not cleaved for the AlphaLISA and BLI assays; The crystallised construct (22-362, His-TSF cleaved, from E. coli) was used only with the small molecule C29; also called GST-KLHDC2; GST-tagged KLHDC2; source: HighFive insect cells (baculovirus), purified (glutathione …)
T3 sequence (looked up): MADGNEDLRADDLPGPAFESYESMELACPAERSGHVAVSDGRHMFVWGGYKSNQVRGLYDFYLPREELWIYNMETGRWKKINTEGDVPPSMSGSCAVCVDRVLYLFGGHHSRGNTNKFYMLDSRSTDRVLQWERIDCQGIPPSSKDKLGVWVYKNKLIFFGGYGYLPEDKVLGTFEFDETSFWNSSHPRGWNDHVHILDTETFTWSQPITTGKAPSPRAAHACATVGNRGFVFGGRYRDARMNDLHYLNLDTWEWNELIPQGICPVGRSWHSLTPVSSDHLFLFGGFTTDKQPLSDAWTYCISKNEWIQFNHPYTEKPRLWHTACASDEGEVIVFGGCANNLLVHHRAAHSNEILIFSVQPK
Put plainly: AlphaScreen or HTRF; AlphaLISA competition assay: GST-KLHDC2 (3.83 nM) on anti-GST acceptor beads, biotinylated SelK peptide (5.55 nM) on streptavidin donor beads; 25 mM HEPES pH 7.5, 100 mM NaCl, 1 mM TCEP, 0.1% Tween-20, 0.05 mg/ml BSA; small-molecule competitors 15 nM to 1.5 mM. Particulars: both partners purified.

T2 sequence (Q15858 whole entry): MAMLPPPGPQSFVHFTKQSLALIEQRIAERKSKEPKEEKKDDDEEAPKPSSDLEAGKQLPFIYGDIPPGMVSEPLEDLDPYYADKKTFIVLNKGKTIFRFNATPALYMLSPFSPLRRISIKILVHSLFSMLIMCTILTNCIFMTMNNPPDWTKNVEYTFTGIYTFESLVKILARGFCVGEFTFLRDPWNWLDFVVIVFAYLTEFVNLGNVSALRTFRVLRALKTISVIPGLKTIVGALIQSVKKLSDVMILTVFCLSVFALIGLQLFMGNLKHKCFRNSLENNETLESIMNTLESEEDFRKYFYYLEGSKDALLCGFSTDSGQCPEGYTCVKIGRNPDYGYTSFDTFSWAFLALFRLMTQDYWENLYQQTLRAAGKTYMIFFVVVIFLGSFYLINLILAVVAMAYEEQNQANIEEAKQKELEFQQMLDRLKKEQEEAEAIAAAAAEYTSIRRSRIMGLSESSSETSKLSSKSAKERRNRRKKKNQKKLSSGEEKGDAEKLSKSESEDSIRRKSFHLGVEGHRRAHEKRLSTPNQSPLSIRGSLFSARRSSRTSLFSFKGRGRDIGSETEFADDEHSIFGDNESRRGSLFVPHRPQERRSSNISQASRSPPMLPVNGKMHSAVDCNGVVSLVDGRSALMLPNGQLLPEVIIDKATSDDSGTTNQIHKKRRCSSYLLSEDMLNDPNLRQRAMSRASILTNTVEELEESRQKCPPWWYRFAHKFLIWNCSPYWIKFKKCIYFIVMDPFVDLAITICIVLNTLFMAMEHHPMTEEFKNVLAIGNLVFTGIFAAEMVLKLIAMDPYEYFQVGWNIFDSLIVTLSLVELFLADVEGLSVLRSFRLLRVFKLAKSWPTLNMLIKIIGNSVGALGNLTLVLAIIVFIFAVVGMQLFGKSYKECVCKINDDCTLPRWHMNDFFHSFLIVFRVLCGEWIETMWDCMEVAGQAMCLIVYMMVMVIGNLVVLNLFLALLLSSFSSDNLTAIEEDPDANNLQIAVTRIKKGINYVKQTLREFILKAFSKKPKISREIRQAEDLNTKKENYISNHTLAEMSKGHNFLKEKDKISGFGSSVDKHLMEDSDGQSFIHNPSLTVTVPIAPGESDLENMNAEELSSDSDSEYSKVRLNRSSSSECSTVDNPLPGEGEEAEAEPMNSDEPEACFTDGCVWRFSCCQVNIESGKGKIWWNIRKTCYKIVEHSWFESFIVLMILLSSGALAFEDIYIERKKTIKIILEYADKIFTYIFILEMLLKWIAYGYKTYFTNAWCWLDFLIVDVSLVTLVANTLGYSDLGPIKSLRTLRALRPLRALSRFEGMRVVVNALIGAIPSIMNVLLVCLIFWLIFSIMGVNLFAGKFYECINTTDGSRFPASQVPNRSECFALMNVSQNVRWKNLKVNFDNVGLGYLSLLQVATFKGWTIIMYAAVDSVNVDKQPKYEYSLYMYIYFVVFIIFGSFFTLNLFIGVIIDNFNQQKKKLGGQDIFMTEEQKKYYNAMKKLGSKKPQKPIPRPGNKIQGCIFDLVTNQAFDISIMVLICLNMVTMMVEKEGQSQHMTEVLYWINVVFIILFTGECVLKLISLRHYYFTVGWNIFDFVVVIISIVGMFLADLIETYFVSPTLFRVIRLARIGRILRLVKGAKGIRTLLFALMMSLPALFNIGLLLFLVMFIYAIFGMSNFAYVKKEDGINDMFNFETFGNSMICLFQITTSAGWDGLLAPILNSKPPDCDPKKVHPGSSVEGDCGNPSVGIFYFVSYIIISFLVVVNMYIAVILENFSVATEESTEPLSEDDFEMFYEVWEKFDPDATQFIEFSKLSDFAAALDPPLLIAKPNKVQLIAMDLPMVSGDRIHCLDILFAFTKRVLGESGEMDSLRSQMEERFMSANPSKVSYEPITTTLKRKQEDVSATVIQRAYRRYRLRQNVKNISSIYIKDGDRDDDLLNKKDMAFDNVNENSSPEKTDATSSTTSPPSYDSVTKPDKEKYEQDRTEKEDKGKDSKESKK

On to `CC(=CC(=O)N1CCN(C(=O)Cc2cnc3ncccn23)C2CC21)C(C)C` (stereo not shown) [Compound C1], for which the IC50 at KLHDC2 is 488 µM.

As to `CN(Cc1cn(CC(=O)O)nn1)C(=O)CCCSc1ccc(Cl)cc1` [Compound C2.4], the IC50 on KLHDC2 came to 10 µM. Still for that read-out and setting: as for `C=CCN(Cc1cn(CC(=O)O)nn1)C(=O)CSc1cc(C)ccc1C` [Compound C2.6], the figure is 6.2 µM; as for `Cc1cc(C)c(C(=O)NCC(=O)NCc2cn(CC(=O)O)nn2)s1` [Compound C2.8], 1.1 µM; as for `O=C(O)Cn1cc(CNC(=O)c2ccccc2SCC2CCCO2)nn1` (stereo not shown) [Compound C2.16], 3.3 µM.

Turning to `C=CCN(Cc1cn(CC(=O)O)nn1)C(=O)CCSCc1ccccc1` [Compound C2.19], the IC50 at KLHDC2 amounted to 3.4 µM.

For `CC(NC(=O)CSCc1nc2ccccc2s1)c1cn(CC(=O)O)nn1` (stereo not shown) [Compound C2.20], the IC50 at KLHDC2 was found to be 4.1 µM. In the case of `C[C@H]1CN(C(=O)C(OC(C)(C)C)C(C)(C)C)C[C@H]1NC(=O)CCn1ccnn1` (stereo partly shown) [Compound C4], at KLHDC2, the IC50 worked out at 2070 µM.

As for `CC1(C)CCCC(CC(=O)NC(C)(C)CNC(=O)c2ccnnc2S)C1` (stereo not shown) [Compound C6], the IC50 at KLHDC2 is 124 µM. The same measure, in the same setting: as for `Cc1cc(C(=O)NCCCn2cnnn2)c(C)n1Cc1ccccc1` [Compound C17], the figure is 121 µM; as for `COc1ccc(CN(C)C(=O)COC(=O)Cn2ccnn2)cc1OC` [Compound C18], 377 µM. For `CC(C)=CCOc1ccc(CCC(C)NCC(O)CCC2CC2)cc1` (stereo not shown) [Compound Z8739905023, CC(CCC=1C=CC(OCC=C(C)C)=CC1)NCC(O)CCC2CC2], at hNaV1.7 channel, the IC50 worked out at 2.3 µM.

B1: N-terminal biotinylated 12 aa SelK degron peptide (peptide)
peptide: Biotin-HLRGSPPPMAGG
notes: diglycine-containing C-end degron of SelK (selenoprotein K), 12 aa; the C-terminal mark is cut off in print; also called SelK C-end degron peptide; biotinylated 12 aa SelK peptide; source: synthetic peptide (Bio-Synthesis, Inc.)
Take B1: the binding result in test [1] is on record as “binds”.

One may read the IC50 as the midpoint of a concentration-inhibition curve.
